Experimental data: patent US12441775B2, “BCL-W polypeptides and mimetics for treating or preventing chemotherapy-induced peripheral neuropathy and hearing loss” (Dana-Farber Cancer Institute, Inc., priority 2016, dated 2025)

How the values were obtained:
mice [1] = experiment: Accelerating RotaRod motor function test; assay type: in vivo, mouse; details: paclitaxel-treated mice, 4 mg/kg every other day for 8 days
Method: (§1) Paclitaxel treatment and behavioral testing. 2 month old age-matched bclw−/− and bclw+/+ mice (17-30 g) of either sex were injected intraperitoneally (IP) with 4 mg/kg paclitaxel (Bristol-Myers Squibb) every other day for 8 days (4 total injections). Paclitaxel was prepared as 1 part 6 mg/ml paclitaxel stock solution diluted in vehicle (1:1 v/v Cremophor EL [EMD Millipore] and dehydrated ethanol) and 2 parts sterile saline and injected at 10 μl/g. Control mice were injected with 1 part vehicle and 2 parts saline. […] For three days prior to the baseline testing, mice were weighed, trained on an automated RotaRod apparatus (4 rpm for 1 min without falling), and habituated in von Frey cages. The next two days, baseline behavioral performance was assessed and averaged. The first paclitaxel injection was given three days later, and mice were weighed and behaviorally tested 10 days after the final injection. To assay motor function, mice were placed on the RotaRod with a ramp of 4-40 rpm and 0.4 rpm/sec acceleration, and latency to fall was measured. […] Withdrawal threshold was determined to be the applied force at which the animal withdrew the stimulated paw on at least 2 of 10 applications. […] Mouse behavior was assessed by an experimenter blind to genotype and condition.

BclxL = experiment: qRT-PCR and Western blot of cell body and axon lysate after paclitaxel; assay type: cell-based, rat; details: 24 hours paclitaxel to axons; axons or cell bodies
Method: (§2) Cell culture. Compartmented chamber (Campenot) cultures were prepared as described (see, e.g., Fenstermacher et al., Springer Protocols: Neuromethods, 103:105-124 (2015)), with modifications. Briefly, DRGs from embryonic day 15 (E15) rats of either sex were dissected and trypsinized. DRGs (1.2×10^5 cells) were plated in the center compartment of a Teflon divider (Camp10, Tyler Research; Campenot, 1982) affixed to a p35 culture dish coated with growth factor reduced Matrigel basement membrane (BD Biosciences) 1:45 in DMEM. Cultures were maintained in media consisting of Neurobasal (Invitrogen) with 2% B27 supplement (Invitrogen), 1% penicillin-streptomycin, 1% GlutaMAX (Life Technologies), 0.08% glucose, and 0.3 μM cytosine arabinoside (AraC) at 37° C., 7.5% CO2; BDNF+NGF (PeproTech) were added to the cell body compartment at a concentration of 10 ng/ml and to the axon compartment at a concentration of 100 ng/ml for 2d. On day 3, media was replaced and the AraC was omitted. On day 5, neurotrophins were removed from the cell body compartment and reduced to 1 ng/ml in the axon compartments for 3-5 days. For paclitaxel treatment experiments, 30 μM paclitaxel (Sigma-Aldrich) or vehicle control (0.1% DMSO) was added to either cell body or distal axon compartments on day 7 for 24 hours. For calpain inhibition experiments, 20 μM calpain inhibitor III (VWR) and paclitaxel were added simultaneously to distal axon compartment.
(§3) Western blotting. […] Using NIH ImageJ software, protein levels were quantified and levels of protein were normalized to GAPDH.
(§4) Quantitative reverse transcription-PCR. […] Quantitative real-time RT-PCR was performed using Taqman Gene expression assays (Applied Biosystems) to assess the expression of bclw (Rn00821025_g1), bcl2 (Rn99999125_m1), and bclxL (Rn00580568_g1). […]

Bclw = experiment: as above; assay type: cell-based, rat; details: 24 hours paclitaxel to axons; axons vs cell bodies
Method: as §2, §3, §4

Bcl2 = experiment: as above; assay type: cell-based, rat; details: 24 hours paclitaxel to axons; axons or cell bodies
Method: as §2, §3, §4

mice [2] = experiment: Epidermal footpad innervation (Tuj1-positive intraepidermal nerve fibers); assay type: in vivo, mouse
Method: as §1
Epidermal footpad innervation. […] Images were acquired and quantified in NIH ImageJ by an experimenter blind to condition.

Compound: CC(=O)O[C@H]1C(=O)[C@@]2(C)[C@H]([C@H](OC(=O)c3ccccc3)[C@]3(O)C[C@H](OC(=O)[C@H](O)[C@@H](NC(=O)c4ccccc4)c4ccccc4)C(C)=C1C3(C)C)[C@]1(OC(C)=O)CO[C@@H]1C[C@@H]2O [paclitaxel]
- motor function (latency to fall) (mice [1]): normal motor function
- BclxL mRNA or protein (BclxL): did not alter
- Bclw mRNA and protein levels (Bclw): reduced Bclw mRNA and protein levels selectively in axons and not in cell bodies
- Bcl2 mRNA or protein (Bcl2): did not alter
- intraepidermal nerve fiber number of the hindpaw (mice [2]; bclw−/− compared to bclw+/+ mice, thick and thin skin): greater reduction in intraepidermal nerve fiber number
- thick skin epidermal innervation (mice [2]; paclitaxel-treated compared with control mice (Example 12)): decreased thick skin epidermal innervation
